Experimental data as given in PubChem BioAssay AID330 (DTP/NCI, 2004).
Values joined by “and” are separate entries in the source; they are usually repeats but may differ in a detail not shown here. Equal entries are not always repeated. Toxic doses and inconclusive results are not listed.

Test system: P388 leukemia ip, CD2F1 mice, survival T/C
Assay: NCI In Vivo Anticancer Drug Screen. Data for tumor model P388 Leukemia (intraperitoneal) in CD2F1 (CDF1) mice
Settings: endpoint: median survival time, higher = longer survival
Procedure, shortened: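 Mice carrying the transplanted tumor received test compound or vehicle. Survival was recorded in each group, and the value is the treated-group measurement divided by that of the vehicle-treated control group.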

[1] = dose: 60.0 mg/kg/injection, schedule: Q01DX005 (ip), vehicle: saline with Tween-80
[2] = dose: 120.0 mg/kg/injection, schedule: Q01DX005 (ip), vehicle: saline with Tween-80
[3] = dose: 240.0 mg/kg/injection, schedule: Q01DX005 (ip), vehicle: saline with Tween-80
[4] = dose: 50.0 mg/kg/injection, schedule: Q01DX009 (ip), vehicle: Klucel (hydroxypropylcellulose) (HPC)
[5] = dose: 100.0 mg/kg/injection, schedule: Q01DX009 (ip), vehicle: Klucel (hydroxypropylcellulose) (HPC)
[6] = dose: 200.0 mg/kg/injection, schedule: Q01DX009 (ip), vehicle: Klucel (hydroxypropylcellulose) (HPC)
[7] = dose: 50.0 mg/kg/injection, schedule: Q01DX005 (ip), vehicle: Klucel (hydroxypropylcellulose) (HPC)
[8] = dose: 25.0 mg/kg/injection, schedule: Q01DX009 (ip), vehicle: saline with Tween-80
[9] = dose: 50.0 mg/kg/injection, schedule: Q01DX009 (ip), vehicle: saline with Tween-80
[10] = dose: 100.0 mg/kg/injection, schedule: Q01DX009 (ip), vehicle: saline with Tween-80
[11] = dose: 50.0 mg/kg/injection, schedule: Q01DX005 (ip), vehicle: saline with Tween-80
[12] = dose: 100.0 mg/kg/injection, schedule: Q01DX005 (ip), vehicle: saline with Tween-80
[13] = dose: 200.0 mg/kg/injection, schedule: Q01DX005 (ip), vehicle: saline with Tween-80
[14] = dose: 60.0 mg/kg/injection, schedule: Q01DX005 (ip), vehicle: Klucel (hydroxypropylcellulose) (HPC)
[15] = dose: 120.0 mg/kg/injection, schedule: Q01DX005 (ip), vehicle: Klucel (hydroxypropylcellulose) (HPC)

Structure (SMILES): O=C1Nc2ccccc2C1NC(=S)Nc1ccc(Br)cc1 (configuration not stated)
- T/C [1]: 91 % of control
- T/C [2]: 94 % of control
- T/C [3]: 88 % of control

Structure (SMILES): CSc1cccc(NC(=O)N2CCN(C)CC2)c1
- T/C [4]: 89 % of control
- T/C [5]: 91 % of control
- T/C [6]: 94 % of control

Structure (SMILES): COC(=O)CCC#N
- T/C (dose: 100.0 mg/kg/injection, schedule: Q01DX009 (ip), vehicle: saline): 97 % of control
- T/C (dose: 200.0 mg/kg/injection, schedule: Q01DX009 (ip), vehicle: saline): 109 % of control
- T/C (dose: 400.0 mg/kg/injection, schedule: Q01DX009 (ip), vehicle: saline): 107 % of control

Structure (SMILES): CC(=O)OC(C)(C)/C=C/C(=O)[C@](C)(O)[C@H]1[C@H](O)C[C@@]2(C)[C@@H]3CC=C4[C@@H](C[C@H](O)C(=O)C4(C)C)[C@]3(C)C(=O)C[C@]12C
- T/C (dose: 0.13 mg/kg/injection, schedule: Q01DX010 (ip), vehicle: saline): 95 % of control
- T/C (dose: 0.25 mg/kg/injection, schedule: Q01DX009 (ip), vehicle: saline with Tween-80): 104 % of control
- T/C (dose: 0.25 mg/kg/injection, schedule: Q01DX010 (ip), vehicle: saline): 104 % of control
- T/C (dose: 0.5 mg/kg/injection, schedule: Q01DX009 (ip), vehicle: saline with Tween-80): 100 % of control
- T/C (dose: 0.5 mg/kg/injection, schedule: Q01DX010 (ip), vehicle: saline): 100 % of control
- T/C (dose: 0.62 mg/kg/injection, schedule: Q01DX009 (ip), vehicle: saline): 113 % of control
- T/C (dose: 1.0 mg/kg/injection, schedule: Q01DX009 (ip), vehicle: saline with Tween-80): 109 % of control
- T/C (dose: 1.0 mg/kg/injection, schedule: Q01DX010 (ip), vehicle: saline): 104 % of control
- T/C (dose: 1.25 mg/kg/injection, schedule: Q01DX009 (ip), vehicle: saline): 117 % of control
- T/C (dose: 2.0 mg/kg/injection, schedule: Q01DX009 (ip), vehicle: saline with Tween-80): 118 % of control
- T/C (dose: 2.5 mg/kg/injection, schedule: Q01DX009 (ip), vehicle: saline): 117 % of control
- T/C (dose: 5.0 mg/kg/injection, schedule: Q01DX009 (ip), vehicle: saline): 113 % of control
- T/C (dose: 10.0 mg/kg/injection, schedule: Q01DX009 (ip), vehicle: saline): 113 % of control

Structure (SMILES): Cc1ccc(C)c2c1C(=O)c1ccccc1C2(O)C#Cc1ccccc1 (configuration not stated)
- T/C [7]: 101 % of control
- T/C (dose: 100.0 mg/kg/injection, schedule: Q01DX005 (ip), vehicle: Klucel (hydroxypropylcellulose) (HPC)): 94 % of control
- T/C (dose: 200.0 mg/kg/injection, schedule: Q01DX005 (ip), vehicle: Klucel (hydroxypropylcellulose) (HPC)): 94 % of control

Structure (SMILES): c1ccc2sc(SNC3CCCCC3)nc2c1
- T/C (dose: 25.0 mg/kg/injection, schedule: Q01DX009 (ip), vehicle: Klucel (hydroxypropylcellulose) (HPC)): 103 % of control
- T/C (dose: 25.0 mg/kg/injection, schedule: Q04DX002 (ip), vehicle: Klucel (hydroxypropylcellulose) (HPC)): 94 % of control
- T/C [4]: 104 % of control
- T/C (dose: 50.0 mg/kg/injection, schedule: Q04DX002 (ip), vehicle: Klucel (hydroxypropylcellulose) (HPC)): 95 % of control
- T/C [5]: 100 % of control
- T/C (dose: 100.0 mg/kg/injection, schedule: Q04DX002 (ip), vehicle: Klucel (hydroxypropylcellulose) (HPC)): 94 % of control
- T/C (dose: 100.0 mg/kg/injection, schedule: Q04DX002 (ip), vehicle: saline): 101 % of control
- T/C [6]: 101 % of control
- T/C (dose: 200.0 mg/kg/injection, schedule: Q04DX002 (ip), vehicle: saline): 109 % of control
- T/C (dose: 400.0 mg/kg/injection, schedule: Q04DX002 (ip), vehicle: saline): 113 % of control

Structure (SMILES): CCc1nc(N)nc(N)c1-c1ccc(NCCCN)c(N)c1
- T/C (dose: 12.5 mg/kg/injection, schedule: Q01DX005 (ip), vehicle: Klucel (hydroxypropylcellulose) (HPC)): 101 % of control
- T/C (dose: 25.0 mg/kg/injection, schedule: Q01DX005 (ip), vehicle: Klucel (hydroxypropylcellulose) (HPC)): 106 % of control
- T/C [7]: 110 % of control and 97 % of control

Structure (SMILES): C/C(=N/O)[c-]1[c-][c-][c-][c-]1.[Fe].[c-]1[c-][c-][cH-][c-]1
- T/C [8]: 120 % of control
- T/C [9]: 115 % of control
- T/C [10]: 100 % of control

Structure (SMILES): CCN(CC)CCCNc1cccc2c(C)cc(OC)nc12
- T/C (dose: 12.5 mg/kg/injection, schedule: Q01DX009 (ip), vehicle: saline): 92 % of control
- T/C (dose: 25.0 mg/kg/injection, schedule: Q01DX009 (ip), vehicle: saline): 90 % of control
- T/C (dose: 50.0 mg/kg/injection, schedule: Q01DX009 (ip), vehicle: saline): 86 % of control

Structure (SMILES): Cc1ncc(C(=O)O)c2c1OC(C)(C)OC2
- T/C [11]: 104 % of control
- T/C [12]: 100 % of control
- T/C [13]: 98 % of control

Structure (SMILES): COC(=O)c1cc(C)c(NC(C)=O)cc1C
- T/C (dose: 12.5 mg/kg/injection, schedule: Q01DX009 (ip), vehicle: distilled water + Tween-80): 100 % of control
- T/C (dose: 25.0 mg/kg/injection, schedule: Q01DX009 (ip), vehicle: distilled water + Tween-80): 98 % of control
- T/C (dose: 50.0 mg/kg/injection, schedule: Q01DX009 (ip), vehicle: distilled water + Tween-80): 90 % of control
- T/C (dose: 100.0 mg/kg/injection, schedule: Q01DX009 (ip), vehicle: distilled water + Tween-80): 98 % of control
- T/C (dose: 200.0 mg/kg/injection, schedule: Q01DX009 (ip), vehicle: distilled water + Tween-80): 89 % of control

Structure (SMILES): COc1cc(C2c3cc4c(cc3OC3(O)CCCC23)OCO4)cc(OC)c1OC (configuration not stated)
- T/C [1]: 91 % of control
- T/C [2]: 93 % of control
- T/C [3]: 99 % of control

Structure (SMILES): O=c1nc2ccccc2c2n1CCN2
- T/C [11]: 105 % of control
- T/C [12]: 101 % of control
- T/C [13]: 100 % of control

Structure (SMILES): O=S(=O)(c1cc(Cl)c(Cl)cc1Cl)N(CCCCCN(S(=O)(=O)c1cc(Cl)c(Cl)cc1Cl)S(=O)(=O)c1cc(Cl)c(Cl)cc1Cl)S(=O)(=O)c1cc(Cl)c(Cl)cc1Cl
- T/C [14]: 91 % of control
- T/C [15]: 91 % of control

Structure (SMILES): O/N=C(/Cc1nc2cc(Cl)c(Cl)cc2nc1C/C(=N/O)c1ccncc1)c1ccncc1
- T/C [1]: 102 % of control
- T/C [2]: 100 % of control
- T/C [3]: 102 % of control

Structure (SMILES): O=C1CC(C(=O)N2Cc3cc4ccccc4nc3C2)CO1 (configuration not stated)
- T/C (dose: 3.13 mg/kg/injection, schedule: Q01DX009 (ip), vehicle: saline with Tween-80): 100 % of control and 98 % of control
- T/C (dose: 6.25 mg/kg/injection, schedule: Q01DX009 (ip), vehicle: saline with Tween-80): 99 % of control and 100 % of control and 115 % of control
- T/C (dose: 12.5 mg/kg/injection, schedule: Q01DX009 (ip), vehicle: saline with Tween-80): 106 % of control and 124 % of control and 98 % of control
- T/C [8]: 100 % of control (2×) and 108 % of control
- T/C [9]: 100 % of control

Structure (SMILES): C/C(CC1C(CCO)C1(C)C)=N\NC(N)=O (configuration not stated)
- T/C [14]: 98 % of control
- T/C [15]: 100 % of control
- T/C (dose: 240.0 mg/kg/injection, schedule: Q01DX005 (ip), vehicle: Klucel (hydroxypropylcellulose) (HPC)): 106 % of control

Structure (SMILES): CCc1ccc2c(c1)C(=O)c1c(c(-c3ccccc3)c3ccccc3c1-c1ccccc1)C2=O
- T/C (dose: 1.5 mg/kg/injection, schedule: Q01DX005 (ip), vehicle: saline with Tween-80): 98 % of control
- T/C (dose: 3.0 mg/kg/injection, schedule: Q01DX005 (ip), vehicle: saline with Tween-80): 95 % of control
- T/C (dose: 6.0 mg/kg/injection, schedule: Q01DX005 (ip), vehicle: saline with Tween-80): 90 % of control
- T/C [12]: 92 % of control
- T/C [13]: 92 % of control

Structure (SMILES): CNNCc1ccc(C(=O)NC(N)=O)cc1
- T/C (dose: 300.0 mg/kg/injection, schedule: Q01DX009 (ip), vehicle: saline): 170 % of control

Structure (SMILES): Cc1c(N)c(=O)oc2cc3occc(=O)c3cc12
- T/C (dose: 100.0 mg/kg/injection, schedule: Q01DX001 (ip), vehicle: saline with Tween-80): 91 % of control
- T/C (dose: 200.0 mg/kg/injection, schedule: Q01DX001 (ip), vehicle: saline with Tween-80): 89 % of control
- T/C (dose: 400.0 mg/kg/injection, schedule: Q01DX001 (ip), vehicle: saline with Tween-80): 92 % of control

Structure (SMILES): O=C1C(Cl)=C(n2c(=O)oc3ccccc32)C(=O)c2ccccc21
- T/C [9]: 93 % of control
- T/C [10]: 98 % of control
